Laboratory results: ChEMBL document CHEMBL5465560, “Selectivity Literature for EUbOPEN Chemogenomic Library” (2024)

Experiments:
[1] = molecular target: T1, Serine/threonine-protein kinase LATS2 (Homo sapiens) (UniProt Q9NRM7); assay: Selectivity interaction (KinomeScan (DiscoverX)) EUB0000229b LATS2; settings: at 10 µM
T1 sequence (whole entry): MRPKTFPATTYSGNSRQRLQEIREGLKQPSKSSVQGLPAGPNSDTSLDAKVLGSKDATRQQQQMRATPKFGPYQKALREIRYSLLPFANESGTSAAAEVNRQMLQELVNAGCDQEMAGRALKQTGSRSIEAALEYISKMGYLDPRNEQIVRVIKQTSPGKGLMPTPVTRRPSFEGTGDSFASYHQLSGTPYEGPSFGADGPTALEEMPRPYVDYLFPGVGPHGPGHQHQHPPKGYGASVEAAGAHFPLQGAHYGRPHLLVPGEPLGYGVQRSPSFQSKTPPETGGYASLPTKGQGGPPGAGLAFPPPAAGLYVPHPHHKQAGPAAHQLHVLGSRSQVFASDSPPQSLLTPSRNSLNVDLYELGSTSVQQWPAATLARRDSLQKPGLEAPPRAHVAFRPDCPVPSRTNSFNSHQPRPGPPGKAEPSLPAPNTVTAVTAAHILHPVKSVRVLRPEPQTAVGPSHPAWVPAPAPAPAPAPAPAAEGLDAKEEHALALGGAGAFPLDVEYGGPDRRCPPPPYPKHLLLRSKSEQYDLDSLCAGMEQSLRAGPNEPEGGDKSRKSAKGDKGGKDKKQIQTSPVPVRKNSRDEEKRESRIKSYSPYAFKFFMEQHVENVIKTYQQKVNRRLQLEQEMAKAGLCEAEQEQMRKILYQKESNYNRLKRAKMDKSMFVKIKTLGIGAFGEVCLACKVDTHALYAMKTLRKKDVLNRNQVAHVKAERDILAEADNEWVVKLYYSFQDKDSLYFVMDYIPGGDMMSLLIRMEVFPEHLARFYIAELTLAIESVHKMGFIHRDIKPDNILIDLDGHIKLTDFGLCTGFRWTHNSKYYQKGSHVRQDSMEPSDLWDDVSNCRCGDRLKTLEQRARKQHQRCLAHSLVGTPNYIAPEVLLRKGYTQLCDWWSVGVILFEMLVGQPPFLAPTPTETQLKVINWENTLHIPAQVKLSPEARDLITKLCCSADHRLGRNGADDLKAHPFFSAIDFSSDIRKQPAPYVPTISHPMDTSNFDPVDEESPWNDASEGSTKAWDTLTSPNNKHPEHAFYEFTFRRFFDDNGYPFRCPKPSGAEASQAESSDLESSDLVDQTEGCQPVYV

[2] = molecular target: T2, NUAK family SNF1-like kinase 2 (Homo sapiens) (UniProt Q9H093); assay: Selectivity interaction (KinomeScan (DiscoverX)) EUB0001079a NUAK2; settings: at 1 µM
T2 sequence (whole entry): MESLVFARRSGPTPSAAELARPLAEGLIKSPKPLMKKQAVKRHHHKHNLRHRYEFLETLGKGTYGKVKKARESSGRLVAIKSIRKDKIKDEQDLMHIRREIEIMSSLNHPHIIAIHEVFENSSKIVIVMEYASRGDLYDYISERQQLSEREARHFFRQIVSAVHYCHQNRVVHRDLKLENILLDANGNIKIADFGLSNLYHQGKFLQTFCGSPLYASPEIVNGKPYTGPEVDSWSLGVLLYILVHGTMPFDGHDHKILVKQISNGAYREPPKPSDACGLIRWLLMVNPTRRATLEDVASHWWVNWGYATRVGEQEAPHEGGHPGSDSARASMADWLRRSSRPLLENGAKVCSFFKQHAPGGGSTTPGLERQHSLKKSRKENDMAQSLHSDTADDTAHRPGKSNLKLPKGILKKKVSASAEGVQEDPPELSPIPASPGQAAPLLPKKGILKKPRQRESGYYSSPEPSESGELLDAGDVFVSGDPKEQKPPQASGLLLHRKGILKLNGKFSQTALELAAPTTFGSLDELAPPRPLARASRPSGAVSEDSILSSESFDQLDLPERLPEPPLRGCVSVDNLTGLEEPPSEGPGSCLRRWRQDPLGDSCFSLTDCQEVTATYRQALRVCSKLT

[3] = molecular target: Mitogen-activated protein kinase 3 (Homo sapiens, UniProt P27361); assay: Selectivity interaction (Kinase panel (Z-LYTE Assay)) EUB0001632a MAPK3; settings: at 10 µM
Chain of Mitogen-activated protein kinase 3 (P27361 whole entry): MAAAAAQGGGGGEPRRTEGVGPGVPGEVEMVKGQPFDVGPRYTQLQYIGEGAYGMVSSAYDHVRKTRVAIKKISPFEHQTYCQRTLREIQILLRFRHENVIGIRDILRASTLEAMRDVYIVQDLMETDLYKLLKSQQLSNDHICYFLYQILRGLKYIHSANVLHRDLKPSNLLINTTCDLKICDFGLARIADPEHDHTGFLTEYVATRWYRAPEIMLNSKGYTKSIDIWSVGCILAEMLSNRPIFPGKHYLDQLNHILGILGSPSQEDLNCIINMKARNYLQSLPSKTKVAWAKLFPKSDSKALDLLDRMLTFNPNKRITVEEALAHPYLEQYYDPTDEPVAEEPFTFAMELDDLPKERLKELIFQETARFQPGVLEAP

[4] = molecular target: RAF proto-oncogene serine/threonine-protein kinase (Homo sapiens) (UniProt P04049); assay: Selectivity interaction (Kinase panel (Invitrogen)) EUB0000639a RAF1; settings: at 200 nM
Chain of RAF proto-oncogene serine/threonine-protein kinase (Homo sapiens) (P04049 whole entry): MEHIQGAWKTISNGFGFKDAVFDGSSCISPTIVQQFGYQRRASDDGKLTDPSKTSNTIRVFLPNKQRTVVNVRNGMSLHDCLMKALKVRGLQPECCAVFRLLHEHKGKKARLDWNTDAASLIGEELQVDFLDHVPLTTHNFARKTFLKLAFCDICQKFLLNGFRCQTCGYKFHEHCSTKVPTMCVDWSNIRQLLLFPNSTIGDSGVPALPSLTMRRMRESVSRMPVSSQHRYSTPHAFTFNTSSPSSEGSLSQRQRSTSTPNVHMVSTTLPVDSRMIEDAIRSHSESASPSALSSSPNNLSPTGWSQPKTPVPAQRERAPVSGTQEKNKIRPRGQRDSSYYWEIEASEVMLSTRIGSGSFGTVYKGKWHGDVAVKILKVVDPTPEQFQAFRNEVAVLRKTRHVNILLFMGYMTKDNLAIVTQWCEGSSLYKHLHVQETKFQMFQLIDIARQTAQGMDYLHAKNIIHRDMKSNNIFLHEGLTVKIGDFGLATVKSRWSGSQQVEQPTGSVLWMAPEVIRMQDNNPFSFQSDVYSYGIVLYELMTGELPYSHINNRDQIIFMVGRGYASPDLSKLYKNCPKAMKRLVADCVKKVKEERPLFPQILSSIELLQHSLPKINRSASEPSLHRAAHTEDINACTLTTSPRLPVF

[5] = molecular target: T3, Inhibitor of nuclear factor kappa-B kinase subunit beta (Homo sapiens) (UniProt O14920); assay: Selectivity interaction (KinomeScan (DiscoverX)) EUB0000655a IKBKB; settings: at 10 µM
T3 sequence (whole entry): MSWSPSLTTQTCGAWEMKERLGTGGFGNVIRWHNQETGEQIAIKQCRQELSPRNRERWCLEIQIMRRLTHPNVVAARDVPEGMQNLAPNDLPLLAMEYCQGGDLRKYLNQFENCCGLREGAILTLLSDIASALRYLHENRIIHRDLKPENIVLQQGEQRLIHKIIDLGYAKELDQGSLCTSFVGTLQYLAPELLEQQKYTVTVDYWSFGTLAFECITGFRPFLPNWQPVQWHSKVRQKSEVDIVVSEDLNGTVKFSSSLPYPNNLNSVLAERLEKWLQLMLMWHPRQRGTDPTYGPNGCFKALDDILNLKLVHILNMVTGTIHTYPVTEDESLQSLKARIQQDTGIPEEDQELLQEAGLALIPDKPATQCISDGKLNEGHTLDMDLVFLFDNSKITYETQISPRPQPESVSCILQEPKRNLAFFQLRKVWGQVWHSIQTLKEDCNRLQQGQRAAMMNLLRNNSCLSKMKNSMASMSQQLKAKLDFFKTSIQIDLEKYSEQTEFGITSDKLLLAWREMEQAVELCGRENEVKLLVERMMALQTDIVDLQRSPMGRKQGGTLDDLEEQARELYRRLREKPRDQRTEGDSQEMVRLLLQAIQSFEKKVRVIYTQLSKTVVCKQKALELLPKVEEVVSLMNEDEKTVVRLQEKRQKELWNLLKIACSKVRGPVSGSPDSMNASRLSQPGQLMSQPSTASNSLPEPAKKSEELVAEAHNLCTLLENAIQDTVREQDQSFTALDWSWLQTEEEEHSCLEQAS

[6] = molecular target: Tyrosine-protein kinase ABL1 (Homo sapiens, UniProt P00519); settings: at 10 µM
Chain of Tyrosine-protein kinase ABL1 (P00519 whole entry): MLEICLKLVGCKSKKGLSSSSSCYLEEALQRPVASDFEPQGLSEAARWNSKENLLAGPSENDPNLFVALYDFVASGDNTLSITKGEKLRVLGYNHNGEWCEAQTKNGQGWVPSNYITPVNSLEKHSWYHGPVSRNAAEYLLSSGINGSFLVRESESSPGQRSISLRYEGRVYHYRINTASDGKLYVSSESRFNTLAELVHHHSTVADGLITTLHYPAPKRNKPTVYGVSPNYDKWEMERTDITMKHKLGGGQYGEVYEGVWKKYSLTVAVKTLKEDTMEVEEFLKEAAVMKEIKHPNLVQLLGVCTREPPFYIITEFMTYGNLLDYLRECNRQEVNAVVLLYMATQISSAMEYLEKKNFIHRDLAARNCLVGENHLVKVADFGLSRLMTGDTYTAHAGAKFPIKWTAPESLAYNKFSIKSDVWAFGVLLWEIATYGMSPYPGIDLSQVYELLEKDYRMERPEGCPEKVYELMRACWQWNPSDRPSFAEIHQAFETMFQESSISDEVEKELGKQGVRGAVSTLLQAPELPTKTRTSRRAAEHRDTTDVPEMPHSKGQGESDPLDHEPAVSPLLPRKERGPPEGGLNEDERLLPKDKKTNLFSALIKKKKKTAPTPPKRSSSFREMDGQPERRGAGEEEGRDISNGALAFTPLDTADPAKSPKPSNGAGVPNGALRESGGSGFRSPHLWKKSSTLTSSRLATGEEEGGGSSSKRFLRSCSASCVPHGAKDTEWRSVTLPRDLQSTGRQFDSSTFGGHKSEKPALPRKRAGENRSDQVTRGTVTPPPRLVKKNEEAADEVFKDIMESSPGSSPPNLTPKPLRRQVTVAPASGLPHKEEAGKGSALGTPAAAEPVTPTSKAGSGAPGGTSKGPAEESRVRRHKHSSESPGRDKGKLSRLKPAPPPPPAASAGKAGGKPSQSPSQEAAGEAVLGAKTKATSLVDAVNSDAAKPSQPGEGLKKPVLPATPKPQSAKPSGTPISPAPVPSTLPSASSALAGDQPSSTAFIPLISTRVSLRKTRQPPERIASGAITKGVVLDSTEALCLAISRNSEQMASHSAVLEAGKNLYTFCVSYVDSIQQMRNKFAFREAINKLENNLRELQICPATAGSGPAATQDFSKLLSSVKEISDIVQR

Work on `COc1cc(N(C)c2ccnc3ccc(C(F)(F)F)cc23)cc(OC)c1OC` yielded a % binding [1] of 89%.
`Nc1cnc(N2CCc3cc(S(=O)(=O)Nc4c(F)cc(Cl)cc4F)cc(N4CCCC4=O)c32)nc1` [TP-020n] gave a % of control [2] of 100%.
`Cn1cc(-n2cnc3c(NCc4nc5cc(Cl)c(Cl)cc5[nH]4)nc(N4CCOCC4)nc32)cn1` was tested, and the % of control [3] was -1.61%.
Compound `CC[C@@H]1[C@H](F)C(=O)N[C@@H]1COc1nccc2cc(C(N)=O)c(OC)cc12` [ZIMLOVISERTIB] has a % of inhibition [4] of 15.9%.
`CN(C)CCOc1ccc(-c2nc(-c3ccncc3)c(-c3ccc4c(c3)CC/C4=N\O)[nH]2)cc1` showed a % of control [5] of 100%.
`CCN(CC)CCCCNc1ncc2cc(-c3cc(OC)cc(OC)c3)c(NC(=O)NC(C)(C)C)nc2n1` was tested, and the % of control [6] was 100%.
